Key:
Experiment in all cases: relative viability (nuclei count vs DMSO), 5 days (fraction); higher = more cells survive
[1] = compound: CCc1c2c(nc3ccc(OC(=O)N4CCC(N5CCCCC5)CC4)cc13)-c1cc3c(c(=O)n1C2)COC(=O)[C@]3(O)CC [Irinotecan] + Nc1nc2[nH]cc(CCc3ccc(C(=O)N[C@@H](CCC(=O)O)C(=O)O)cc3)c2c(=O)[nH]1 [Pemetrexed] (partner 0.2 µM)
Procedure, shortened: (§1)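 Cells from lung cancer lines were seeded into 1536-well plates and, one day later, dosed by pin tool. Treatments were either a single drug or a fixed dose of an anchor drug with five library-drug doses (not always all listed) in √10 steps. After 5 days, nuclei were stained in a one-step fixation (final 0.05% Triton X-100, 1% formaldehyde, 1 ug/ml Hoechst) and counted on 4× images, and relative viability is the treated-to-vehicle nuclei ratio, as the median of duplicate plates.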

[2] = compound: CC[C@@H](C)CNCC(=O)N1CCC2=C([C@@H]1COC3=CC=CC(=C3)C)C=CS2 [RU-SKI 43] + CC(C)C[C@H](NC(=O)[C@H](Cc1ccccc1)NC(=O)c1cnccn1)B(O)O [Bortezomib] (partner 0.002 µM)
Procedure, shortened: as §1

[3] = compound: CC[C@@H](C)CNCC(=O)N1CCC2=C([C@@H]1COC3=CC=CC(=C3)C)C=CS2 [RU-SKI 43] + C[C@]1(O)C[C@@H](c2nc(-c3ccc4ccc(-c5ccccc5)nc4c3)c3c(N)nccn32)C1 [Linsitinib] (partner 1 µM)
Procedure, shortened: as §1

[4] = compound: Cn1cc(-c2cnc3ccc4ccc(CS(=O)(=O)NCc5ccccn5)cc4c(=O)c3c2)cn1 [MK-8033] + COc1cccc2cc(-c3nc([C@H]4CC[C@H](C(=O)O)CC4)n4ncnc(N)c34)[nH]c12 [OSI-027] (partner 0.5 µM)
Procedure, shortened: as §1

Row | Cell Line | relative viability ([1]; first compound 0.6325 µM) | relative viability ([1]; first compound 2 µM) | relative viability ([1]; first compound 6.325 µM) | relative viability ([1]; first compound 20 µM) | relative viability ([2]; first compound 0.1 µM) | relative viability ([2]; first compound 0.3162 µM) | relative viability ([2]; first compound 1 µM) | relative viability ([2]; first compound 3.162 µM) | relative viability ([2]; first compound 10 µM) | relative viability ([3]; first compound 0.1 µM) | relative viability ([3]; first compound 0.3162 µM) | relative viability ([3]; first compound 1 µM) | relative viability ([3]; first compound 3.162 µM) | relative viability ([3]; first compound 10 µM) | relative viability ([4]; first compound 0.02 µM) | relative viability ([4]; first compound 0.06325 µM) | relative viability ([4]; first compound 0.2 µM) | relative viability ([4]; first compound 0.6325 µM) | relative viability ([4]; first compound 2 µM)
1 | NCI-H1651 | 0.25 | 0.638 | 0.356 | 0.147 | 0.93 | 1.1 | 1.01 | 0.931 | 0.947 | 1.08 | 1.34 | 1.09 | 0.959 | 0.908 | 0.735 | 0.541 | 0.757 | 0.646 | 0.699
2 | NCI-H1666 | 0.762 | 0.766 | 0.676 | 0.63 | 0.704 | 0.84 | 0.702 | 0.719 | 0.534 | 0.854 | 0.916 | 0.8 | 0.714 | 0.568 | 0.886 | 0.754 | 0.771 | 0.94 | 0.803
3 | NCI-H1734 | – | 0.385 | 0.222 | 0.141 | 0.971 | 1.08 | 0.917 | 0.824 | 0.789 | 0.905 | 0.818 | 0.918 | 0.934 | 0.791 | 0.59 | 0.508 | 0.612 | 0.632 | 0.547
4 | NCI-H1755 | 0.383 | 0.45 | 0.39 | 0.448 | 0.978 | 1.14 | 1.04 | 0.941 | 0.986 | 1.02 | 1.13 | 1.05 | 1.02 | 0.993 | 0.625 | 0.676 | 0.681 | 0.717 | 0.822
5 | NCI-H1792 | 0.507 | 0.823 | 0.188 | 0.282 | 0.961 | 1.29 | 1.31 | 1.03 | 0.941 | 0.46 | 0.601 | 0.596 | 0.585 | 0.538 | 0.655 | 0.611 | 0.683 | 0.628 | 0.512
6 | NCI-H1915 | 0.352 | 0.349 | 0.187 | 0.132 | 1.05 | 1.39 | 1.1 | 0.959 | 1.02 | 1.11 | 1.18 | 1.23 | 1.11 | 1.11 | 0.649 | 0.559 | 0.62 | 0.65 | 0.596
7 | NCI-H1975 | 0.268 | 0.311 | 0.252 | 0.173 | 0.441 | 0.421 | 0.464 | 0.4 | 0.34 | 0.985 | 1.1 | 0.951 | 0.996 | 0.869 | 0.692 | 0.645 | 0.563 | – | 0.571
8 | NCI-H1993 | – | 0.637 | 0.545 | 0.506 | 1.04 | 1.01 | 1.15 | 1.1 | 0.756 | 0.745 | 0.732 | 0.661 | 0.721 | 0.762 | 0.519 | 0.583 | 0.561 | 0.598 | 0.527
9 | NCI-H2009 | 0.783 | 0.439 | 0.211 | 0.121 | 1.05 | 1.02 | 1.01 | 1.12 | 0.968 | 1.2 | 1.23 | 1.24 | 1.21 | 1.16 | 0.628 | 0.612 | 0.597 | 0.617 | 0.626
10 | NCI-H2023 | 0.256 | 0.2 | 0.156 | 0.0599 | 0.88 | 1.21 | 1.04 | 1.15 | 0.932 | 0.597 | 0.748 | 0.661 | 0.675 | 0.697 | 0.432 | 0.288 | 0.335 | 0.319 | 0.223
11 | NCI-H2085 | 0.661 | 0.915 | 0.826 | 0.468 | 1.03 | 1.08 | 1.1 | 0.995 | 0.988 | 0.929 | 0.875 | 1.01 | 0.917 | 0.772 | 0.762 | 0.728 | 0.653 | 0.643 | 0.7
12 | NCI-H2087 | 0.489 | 0.197 | 0.172 | 0.195 | 0.759 | 0.942 | 0.996 | 0.735 | 0.925 | 1.04 | 1.08 | 0.95 | 0.853 | 1.02 | 0.546 | 0.519 | 0.443 | 0.642 | 0.617
13 | NCI-H2126 | 0.414 | 0.606 | 0.456 | 0.383 | 1.15 | 1.25 | 1.23 | 1.12 | 1.08 | 0.683 | 0.698 | 0.717 | 0.762 | 0.702 | 0.752 | 0.666 | 0.764 | 0.595 | 0.808
14 | NCI-H2228 | 0.363 | 0.36 | 0.336 | 0.442 | 1.19 | 1.26 | 0.937 | 1.98 | 0.941 | 0.858 | 0.507 | 0.828 | 0.885 | 0.427 | 0.692 | 0.562 | 0.576 | 0.559 | 0.552
15 | NCI-H2347 | 0.429 | 0.427 | 0.342 | 0.427 | 0.951 | 1.16 | 1.01 | 0.976 | 0.994 | 1 | 1.19 | 1.07 | 0.94 | 1.01 | 0.395 | 0.399 | 0.406 | 0.454 | 0.422
16 | NCI-H2405 | – | 1.12 | 0.315 | 0.256 | 0.957 | 1.03 | 1.02 | 0.936 | 0.773 | 0.866 | 0.941 | 0.732 | 0.857 | 0.808 | 0.595 | 0.538 | 0.594 | 0.604 | 0.604
17 | NCI-H3122 | 0.205 | 0.202 | 0.139 | 0.14 | 1.06 | 0.924 | 0.993 | 1.02 | 0.978 | 0.992 | 1.05 | 1.09 | 1.12 | 1.08 | 1.05 | 0.957 | 0.926 | 0.991 | 0.916

Source: the supplement of paper PMC10307832
